The supplement of paper PMC10307832

How the values were obtained:
Assay in all cases: relative viability (nuclei count vs DMSO), 5 days (fraction); higher = more cells survive
Crizotinib + Palbociclib = compound: C[C@@H](Oc1cc(-c2cnn(C3CCNCC3)c2)cnc1N)c1c(Cl)ccc(F)c1Cl [Crizotinib] + CC(=O)c1c(C)c2cnc(Nc3ccc(N4CCNCC4)cn3)nc2n(C2CCCC2)c1=O [Palbociclib] (partner 0.5 µM)
Outline: (§1)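 Lung cancer cell lines were pin-tool dosed in 1536-well plates on the day after seeding, with either a lone drug or a fixed anchor-drug dose plus five library-drug doses (not always all listed) in √10 steps. Nuclei were counted on 4× images after 5 days. Relative viability is the ratio of treated-well to vehicle-well nuclei counts, with each value a median of duplicate plates.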

Carfilzomib + Luminespib = compound: CC(C)C[C@H](NC(=O)[C@H](CCc1ccccc1)NC(=O)CN1CCOCC1)C(=O)N[C@@H](Cc1ccccc1)C(=O)N[C@@H](CC(C)C)C(=O)[C@@]1(C)CO1 [Carfilzomib] + CCNC(=O)c1noc(-c2cc(C(C)C)c(O)cc2O)c1-c1ccc(CN2CCOCC2)cc1 [Luminespib] (partner 0.01 µM)
Outline: as §1

Crizotinib + Decitabine = compound: C[C@@H](Oc1cc(-c2cnn(C3CCNCC3)c2)cnc1N)c1c(Cl)ccc(F)c1Cl [Crizotinib] + Nc1ncn([C@H]2C[C@H](O)[C@@H](CO)O2)c(=O)n1 [Decitabine] (partner 2 µM)
Outline: as §1

Carfilzomib + Linsitinib = compound: CC(C)C[C@H](NC(=O)[C@H](CCc1ccccc1)NC(=O)CN1CCOCC1)C(=O)N[C@@H](Cc1ccccc1)C(=O)N[C@@H](CC(C)C)C(=O)[C@@]1(C)CO1 [Carfilzomib] + C[C@]1(O)C[C@@H](c2nc(-c3ccc4ccc(-c5ccccc5)nc4c3)c3c(N)nccn32)C1 [Linsitinib] (partner 1 µM)
Outline: as §1

Row | Cell Line | relative viability (Crizotinib + Palbociclib; first compound 0.01 µM) | relative viability (Crizotinib + Palbociclib; first compound 0.03162 µM) | relative viability (Crizotinib + Palbociclib; first compound 0.1 µM) | relative viability (Crizotinib + Palbociclib; first compound 0.3162 µM) | relative viability (Crizotinib + Palbociclib; first compound 1 µM) | relative viability (Carfilzomib + Luminespib; first compound 0.001 µM) | relative viability (Carfilzomib + Luminespib; first compound 0.003162 µM) | relative viability (Carfilzomib + Luminespib; first compound 0.01 µM) | relative viability (Carfilzomib + Luminespib; first compound 0.03162 µM) | relative viability (Carfilzomib + Luminespib; first compound 0.1 µM) | relative viability (Crizotinib + Decitabine; first compound 0.01 µM) | relative viability (Crizotinib + Decitabine; first compound 0.03162 µM) | relative viability (Crizotinib + Decitabine; first compound 0.1 µM) | relative viability (Crizotinib + Decitabine; first compound 0.3162 µM) | relative viability (Crizotinib + Decitabine; first compound 1 µM) | relative viability (Carfilzomib + Linsitinib; first compound 0.001 µM) | relative viability (Carfilzomib + Linsitinib; first compound 0.003162 µM) | relative viability (Carfilzomib + Linsitinib; first compound 0.01 µM) | relative viability (Carfilzomib + Linsitinib; first compound 0.03162 µM) | relative viability (Carfilzomib + Linsitinib; first compound 0.1 µM)
1 | NCI-H2087 | 0.178 | 0.244 | 0.213 | 0.229 | 0.23 | 0.212 | 0.146 | 0.215 | 0.0619 | 0.0448 | 0.259 | 0.247 | 0.252 | 0.194 | 0.274 | 0.936 | 1.05 | 0.851 | 0.108 | 0.119
2 | NCI-H2126 | 0.313 | 0.385 | 0.37 | 0.342 | 0.351 | 0.875 | 0.999 | 0.938 | 0.744 | 0.465 | 0.51 | 0.568 | 0.579 | 0.565 | 0.591 | 0.703 | 0.793 | 0.695 | 0.764 | 0.58
3 | NCI-H2347 | 0.384 | 0.441 | 0.465 | 0.437 | 0.335 | 0.509 | – | 0.266 | 0.346 | 0.201 | 0.69 | 0.616 | 0.674 | 0.608 | 0.661 | 0.983 | 1.06 | 0.962 | 0.785 | 0.391
4 | NCI-H2405 | 0.479 | 0.515 | 0.509 | 0.56 | 0.501 | – | 0.873 | 0.851 | 0.759 | 0.32 | 0.717 | 0.698 | 0.717 | 0.727 | 0.734 | – | 1.19 | 1.01 | 0.389 | 0.16
5 | NCI-H3122 | 0.176 | 0.184 | 0.16 | 0.2 | 0.187 | 0.064 | 0.0963 | 0.106 | 0.107 | 0.106 | 0.316 | 0.408 | 0.456 | 0.409 | 0.453 | 0.958 | 1.05 | 0.95 | 1 | 0.806
6 | PC-3 [JPC-3] | 0.53 | 0.566 | 0.545 | – | 0.553 | 0.754 | 0.706 | 0.742 | 0.646 | 0.331 | 0.794 | 0.809 | 0.839 | – | 0.865 | 1 | 0.881 | 1 | 0.86 | 0.466
